What was measured:
Conditions in all cases: Compound concentration 10 µM
[1] = target: 5-hydroxytryptamine receptor 2B (Homo sapiens) (UniProt P41595)
[2] = target: T1, 5-hydroxytryptamine receptor 2C (Homo sapiens) (UniProt P28335)
T1 sequence (whole entry): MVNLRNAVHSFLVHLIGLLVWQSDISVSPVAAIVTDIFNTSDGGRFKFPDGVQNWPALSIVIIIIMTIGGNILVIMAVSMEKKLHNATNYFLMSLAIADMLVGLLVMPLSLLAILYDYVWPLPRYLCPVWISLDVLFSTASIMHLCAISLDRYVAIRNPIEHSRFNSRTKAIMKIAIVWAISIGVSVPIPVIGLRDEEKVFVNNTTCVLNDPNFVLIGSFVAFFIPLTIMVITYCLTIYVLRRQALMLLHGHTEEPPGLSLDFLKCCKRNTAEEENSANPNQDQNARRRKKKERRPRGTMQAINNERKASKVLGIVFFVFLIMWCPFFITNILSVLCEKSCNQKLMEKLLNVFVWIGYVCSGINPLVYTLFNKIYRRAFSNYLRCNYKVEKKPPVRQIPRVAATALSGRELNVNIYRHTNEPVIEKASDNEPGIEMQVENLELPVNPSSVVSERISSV

[3] = target: T2, Alpha-2A adrenergic receptor (Homo sapiens) (UniProt P08913)
T2 sequence (whole entry): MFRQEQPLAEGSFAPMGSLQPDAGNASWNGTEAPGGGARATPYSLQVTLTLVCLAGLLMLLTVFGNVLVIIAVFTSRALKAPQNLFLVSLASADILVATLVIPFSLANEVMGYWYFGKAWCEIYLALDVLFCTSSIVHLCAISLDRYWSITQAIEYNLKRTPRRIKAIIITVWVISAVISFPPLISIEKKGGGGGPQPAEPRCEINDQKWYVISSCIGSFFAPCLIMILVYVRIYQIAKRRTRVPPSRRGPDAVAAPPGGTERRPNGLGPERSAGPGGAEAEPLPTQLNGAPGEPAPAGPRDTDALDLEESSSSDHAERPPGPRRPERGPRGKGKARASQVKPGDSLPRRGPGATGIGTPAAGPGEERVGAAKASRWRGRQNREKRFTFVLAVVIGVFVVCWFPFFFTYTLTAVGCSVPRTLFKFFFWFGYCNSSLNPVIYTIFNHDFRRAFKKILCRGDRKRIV

[4] = target: Histamine H4 receptor (Homo sapiens) (UniProt Q9H3N8)
Chain of Histamine H4 receptor (Homo sapiens) (Q9H3N8 whole entry): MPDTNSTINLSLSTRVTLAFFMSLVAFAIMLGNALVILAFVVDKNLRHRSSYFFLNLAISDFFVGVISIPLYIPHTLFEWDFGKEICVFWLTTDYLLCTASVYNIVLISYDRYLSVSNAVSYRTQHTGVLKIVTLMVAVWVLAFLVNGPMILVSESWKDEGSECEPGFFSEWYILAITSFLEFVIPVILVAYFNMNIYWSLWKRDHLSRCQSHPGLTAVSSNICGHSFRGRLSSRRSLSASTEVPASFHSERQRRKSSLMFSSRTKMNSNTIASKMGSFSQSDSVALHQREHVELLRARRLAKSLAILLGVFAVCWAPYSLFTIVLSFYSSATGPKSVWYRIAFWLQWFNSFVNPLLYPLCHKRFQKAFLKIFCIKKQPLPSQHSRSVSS

[5] = target: Kappa-type opioid receptor (Homo sapiens) (UniProt P41145)
Chain of Kappa-type opioid receptor (Homo sapiens) (P41145 whole entry): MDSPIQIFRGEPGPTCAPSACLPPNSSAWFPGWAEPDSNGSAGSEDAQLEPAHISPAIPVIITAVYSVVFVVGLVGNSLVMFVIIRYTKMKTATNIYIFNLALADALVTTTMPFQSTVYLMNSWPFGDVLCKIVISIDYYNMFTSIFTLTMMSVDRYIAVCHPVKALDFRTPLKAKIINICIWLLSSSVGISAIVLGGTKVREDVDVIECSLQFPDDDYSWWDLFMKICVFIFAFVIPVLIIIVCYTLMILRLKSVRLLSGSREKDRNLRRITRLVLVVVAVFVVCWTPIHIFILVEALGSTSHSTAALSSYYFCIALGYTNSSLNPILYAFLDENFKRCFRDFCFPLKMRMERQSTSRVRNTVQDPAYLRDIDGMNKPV

[6] = target: T3, Alpha-1B adrenergic receptor (Homo sapiens) (UniProt P35368)
T3 sequence (whole entry): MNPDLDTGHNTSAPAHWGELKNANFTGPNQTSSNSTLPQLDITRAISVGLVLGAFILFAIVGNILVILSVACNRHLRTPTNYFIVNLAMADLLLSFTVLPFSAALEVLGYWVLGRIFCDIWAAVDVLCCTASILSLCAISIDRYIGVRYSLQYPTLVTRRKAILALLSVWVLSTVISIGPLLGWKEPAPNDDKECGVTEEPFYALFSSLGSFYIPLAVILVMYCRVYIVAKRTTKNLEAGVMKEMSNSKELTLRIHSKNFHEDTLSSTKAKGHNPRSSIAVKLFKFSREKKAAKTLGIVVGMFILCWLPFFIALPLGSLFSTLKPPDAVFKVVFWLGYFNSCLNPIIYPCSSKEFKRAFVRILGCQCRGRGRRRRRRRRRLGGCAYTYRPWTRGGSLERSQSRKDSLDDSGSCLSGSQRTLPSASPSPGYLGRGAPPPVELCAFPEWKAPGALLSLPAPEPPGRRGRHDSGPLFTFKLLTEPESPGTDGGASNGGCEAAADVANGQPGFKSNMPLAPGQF

[7] = target: 5-hydroxytryptamine receptor 6 (Homo sapiens) (UniProt P50406)
Chain of 5-hydroxytryptamine receptor 6 (Homo sapiens) (P50406 whole entry): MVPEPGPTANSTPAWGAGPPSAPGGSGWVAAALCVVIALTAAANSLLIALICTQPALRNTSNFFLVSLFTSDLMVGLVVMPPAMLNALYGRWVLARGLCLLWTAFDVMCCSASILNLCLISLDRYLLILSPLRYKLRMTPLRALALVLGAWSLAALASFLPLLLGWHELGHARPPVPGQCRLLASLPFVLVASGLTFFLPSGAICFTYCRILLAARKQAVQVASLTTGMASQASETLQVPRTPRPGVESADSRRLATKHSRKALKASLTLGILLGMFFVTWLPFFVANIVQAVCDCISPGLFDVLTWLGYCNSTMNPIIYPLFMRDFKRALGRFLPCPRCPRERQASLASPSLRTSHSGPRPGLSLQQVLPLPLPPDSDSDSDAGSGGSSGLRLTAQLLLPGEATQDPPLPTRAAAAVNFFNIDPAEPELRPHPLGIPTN

[8] = target: T4, D(4) dopamine receptor (Homo sapiens) (UniProt P21917)
T4 sequence (whole entry): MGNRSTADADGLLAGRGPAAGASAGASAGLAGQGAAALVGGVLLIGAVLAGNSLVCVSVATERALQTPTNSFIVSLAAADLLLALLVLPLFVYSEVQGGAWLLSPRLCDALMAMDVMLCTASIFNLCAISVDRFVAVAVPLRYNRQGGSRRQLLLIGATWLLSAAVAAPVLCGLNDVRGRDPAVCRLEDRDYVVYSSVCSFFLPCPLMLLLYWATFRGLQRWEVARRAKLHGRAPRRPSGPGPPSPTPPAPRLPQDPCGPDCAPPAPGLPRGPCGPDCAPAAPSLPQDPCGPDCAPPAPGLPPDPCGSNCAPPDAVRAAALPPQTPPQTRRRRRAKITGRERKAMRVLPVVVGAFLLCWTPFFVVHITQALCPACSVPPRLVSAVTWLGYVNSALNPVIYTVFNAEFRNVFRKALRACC

[9] = target: D(1A) dopamine receptor (Homo sapiens) (UniProt P21728)
Chain of D(1A) dopamine receptor (Homo sapiens) (P21728 whole entry): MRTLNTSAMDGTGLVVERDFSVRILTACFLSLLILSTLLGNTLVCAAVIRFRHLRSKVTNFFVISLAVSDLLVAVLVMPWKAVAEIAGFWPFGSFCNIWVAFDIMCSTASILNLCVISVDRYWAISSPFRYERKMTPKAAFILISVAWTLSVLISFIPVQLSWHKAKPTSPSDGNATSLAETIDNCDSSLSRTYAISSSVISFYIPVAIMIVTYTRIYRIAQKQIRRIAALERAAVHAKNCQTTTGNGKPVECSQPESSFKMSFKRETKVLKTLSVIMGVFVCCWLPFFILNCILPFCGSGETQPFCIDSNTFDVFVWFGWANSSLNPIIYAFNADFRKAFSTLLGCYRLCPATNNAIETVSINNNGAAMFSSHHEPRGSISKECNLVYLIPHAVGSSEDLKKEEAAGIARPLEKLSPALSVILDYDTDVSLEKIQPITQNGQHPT

[10] = target: 5-hydroxytryptamine receptor 1D (Homo sapiens) (UniProt P28221)
Chain of 5-hydroxytryptamine receptor 1D (Homo sapiens) (P28221 whole entry): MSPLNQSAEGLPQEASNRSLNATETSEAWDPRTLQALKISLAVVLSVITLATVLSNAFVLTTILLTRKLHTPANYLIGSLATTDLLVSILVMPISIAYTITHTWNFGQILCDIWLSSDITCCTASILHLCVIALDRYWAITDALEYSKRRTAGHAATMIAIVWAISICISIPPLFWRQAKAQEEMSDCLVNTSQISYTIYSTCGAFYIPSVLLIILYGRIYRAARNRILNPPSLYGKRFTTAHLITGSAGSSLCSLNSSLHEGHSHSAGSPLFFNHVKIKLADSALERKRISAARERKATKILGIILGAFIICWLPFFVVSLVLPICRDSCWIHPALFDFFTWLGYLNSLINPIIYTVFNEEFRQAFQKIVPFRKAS

[11] = target: Muscarinic acetylcholine receptor M3 (Homo sapiens) (UniProt P20309)
Chain of Muscarinic acetylcholine receptor M3 (Homo sapiens) (P20309 whole entry, looked up): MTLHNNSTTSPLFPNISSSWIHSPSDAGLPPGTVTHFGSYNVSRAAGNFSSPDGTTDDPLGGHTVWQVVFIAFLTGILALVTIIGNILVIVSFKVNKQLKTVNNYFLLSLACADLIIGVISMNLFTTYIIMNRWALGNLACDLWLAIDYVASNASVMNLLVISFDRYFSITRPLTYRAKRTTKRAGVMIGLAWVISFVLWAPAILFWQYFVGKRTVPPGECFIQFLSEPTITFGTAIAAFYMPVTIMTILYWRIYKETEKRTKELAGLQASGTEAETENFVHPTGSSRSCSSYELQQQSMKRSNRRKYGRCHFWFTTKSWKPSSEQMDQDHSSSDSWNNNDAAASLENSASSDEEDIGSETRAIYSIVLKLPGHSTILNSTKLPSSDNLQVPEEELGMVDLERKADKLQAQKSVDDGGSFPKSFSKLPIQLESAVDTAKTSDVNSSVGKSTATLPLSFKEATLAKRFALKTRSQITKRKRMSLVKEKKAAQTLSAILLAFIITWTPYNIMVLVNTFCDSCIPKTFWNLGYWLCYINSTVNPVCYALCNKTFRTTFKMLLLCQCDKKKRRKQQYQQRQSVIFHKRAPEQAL

[12] = target: Sodium-dependent noradrenaline transporter (Homo sapiens) (UniProt P23975)
Chain of Sodium-dependent noradrenaline transporter (Homo sapiens) (P23975 whole entry): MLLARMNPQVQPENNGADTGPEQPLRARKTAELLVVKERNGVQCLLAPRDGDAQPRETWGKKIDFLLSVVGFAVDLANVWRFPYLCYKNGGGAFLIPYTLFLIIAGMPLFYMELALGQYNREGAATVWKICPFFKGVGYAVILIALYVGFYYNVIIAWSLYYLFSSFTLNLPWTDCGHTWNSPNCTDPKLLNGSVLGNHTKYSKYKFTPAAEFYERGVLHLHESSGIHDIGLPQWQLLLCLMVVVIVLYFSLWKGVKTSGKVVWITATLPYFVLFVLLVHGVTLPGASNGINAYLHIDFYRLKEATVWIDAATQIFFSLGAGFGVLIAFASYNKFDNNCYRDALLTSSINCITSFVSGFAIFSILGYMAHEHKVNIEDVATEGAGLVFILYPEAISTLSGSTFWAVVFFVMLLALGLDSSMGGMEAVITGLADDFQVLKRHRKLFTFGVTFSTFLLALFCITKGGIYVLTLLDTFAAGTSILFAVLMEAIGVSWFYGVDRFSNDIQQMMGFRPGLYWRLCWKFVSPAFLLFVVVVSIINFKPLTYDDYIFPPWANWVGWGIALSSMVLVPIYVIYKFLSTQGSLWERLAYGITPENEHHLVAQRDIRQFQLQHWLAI

[13] = target: T5, 5-hydroxytryptamine receptor 3A (Homo sapiens) (UniProt P46098)
T5 sequence (whole entry): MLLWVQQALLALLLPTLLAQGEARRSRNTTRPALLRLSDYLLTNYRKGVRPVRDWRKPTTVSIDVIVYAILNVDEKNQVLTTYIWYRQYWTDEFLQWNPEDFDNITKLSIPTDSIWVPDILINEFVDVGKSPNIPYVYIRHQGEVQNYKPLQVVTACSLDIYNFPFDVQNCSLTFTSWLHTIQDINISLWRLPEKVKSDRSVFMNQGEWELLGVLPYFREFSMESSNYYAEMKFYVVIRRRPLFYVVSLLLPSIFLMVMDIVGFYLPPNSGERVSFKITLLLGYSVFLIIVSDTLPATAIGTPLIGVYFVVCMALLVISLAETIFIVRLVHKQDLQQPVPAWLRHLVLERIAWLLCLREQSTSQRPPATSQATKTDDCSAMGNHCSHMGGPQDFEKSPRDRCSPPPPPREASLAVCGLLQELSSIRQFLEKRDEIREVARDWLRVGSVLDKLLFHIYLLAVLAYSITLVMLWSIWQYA

[14] = target: Beta-1 adrenergic receptor (Homo sapiens) (UniProt P08588)
Chain of Beta-1 adrenergic receptor (Homo sapiens) (P08588 whole entry, looked up): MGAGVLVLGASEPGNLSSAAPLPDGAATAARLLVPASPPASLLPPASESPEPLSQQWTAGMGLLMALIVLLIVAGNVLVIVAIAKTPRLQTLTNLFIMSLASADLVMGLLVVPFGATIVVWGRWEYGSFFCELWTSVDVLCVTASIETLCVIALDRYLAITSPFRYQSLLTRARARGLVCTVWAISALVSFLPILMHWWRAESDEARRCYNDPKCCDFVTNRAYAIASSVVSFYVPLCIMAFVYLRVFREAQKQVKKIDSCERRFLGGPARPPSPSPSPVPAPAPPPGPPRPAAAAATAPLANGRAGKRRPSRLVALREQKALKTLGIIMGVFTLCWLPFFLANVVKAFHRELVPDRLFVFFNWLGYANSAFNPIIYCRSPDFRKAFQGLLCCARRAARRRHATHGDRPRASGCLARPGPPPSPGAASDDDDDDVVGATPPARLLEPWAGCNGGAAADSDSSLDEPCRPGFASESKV

Chain of 5-hydroxytryptamine receptor 2B (Homo sapiens) (P41595 whole entry): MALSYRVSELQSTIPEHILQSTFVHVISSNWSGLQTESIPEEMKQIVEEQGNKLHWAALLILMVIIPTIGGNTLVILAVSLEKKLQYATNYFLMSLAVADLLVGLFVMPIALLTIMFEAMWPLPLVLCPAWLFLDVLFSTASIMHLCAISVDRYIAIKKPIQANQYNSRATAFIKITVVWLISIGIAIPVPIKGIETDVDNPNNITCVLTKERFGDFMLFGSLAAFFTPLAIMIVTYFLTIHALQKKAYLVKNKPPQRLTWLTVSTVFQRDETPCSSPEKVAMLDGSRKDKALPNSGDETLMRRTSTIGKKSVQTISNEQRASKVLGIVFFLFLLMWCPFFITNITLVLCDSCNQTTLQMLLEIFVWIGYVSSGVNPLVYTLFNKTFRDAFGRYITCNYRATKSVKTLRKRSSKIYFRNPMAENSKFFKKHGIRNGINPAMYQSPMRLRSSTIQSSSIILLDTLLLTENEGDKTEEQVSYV

Row | SMILES | inhibition [1] [%] | inhibition [2] [%] | inhibition [3] [%] | inhibition [4] [%] | inhibition [5] [%] | inhibition [6] [%] | inhibition [7] [%] | inhibition [8] [%] | inhibition [9] [%] | inhibition [10] [%] | inhibition [11] [%] | inhibition [12] [%] | inhibition [13] [%] | inhibition [14] [%]
1 | COc1ccccc1N1CCN(CCCCNC(=O)c2ccc3ccccc3c2)CC1 | 97 | 97.9 | 100 | 8.79 | 35.6 | 96.8 | 37.4 | 95.1 | 73.4 | 103 | 3.09 | 68.2 | 0.02 | 
2 | O=c1ccc2ccc(OCCCCN3CCN(c4cccc5sccc45)CC3)cc2[nH]1 | 96 | 103 | 104 | 8 | 13.9 | 97.3 | 101 | 101 | 82.6 | 104 | 21.4 | 96.6 | 81.9 | 
3 | OCc1cc(C(O)CNCCCCCCOCCCCc2ccccc2)ccc1O (stereo not drawn) | 90.4 | 60.6 | 58 | 6.15 | 9.07 | 47.7 | 18 | 57.4 | 6.76 | 76.6 | -8.98 | 98.7 | 4.21 | 
4 | CNc1nc(NCc2ccc(NS(C)(=O)=O)cc2Cl)cc(-c2ccccn2)n1 | 66.5 | 55.4 | 43.2 | 0.58 | 73.2 | 26.4 | 47 | 2.1 | 7.8 | 0.67 | -1.96 | 24 | -0.08 | 
5 | CN1CCCC(n2nc(Cc3ccc(Cl)cc3)c3ccccc3c2=O)CC1 (stereo not drawn) | 89.5 | 93.7 | 62.3 | 1.53 |  | 72.7 | 74.7 | 85.5 | 57.1 | 57.9 | 57.3 | 31.6 | 96.4 | 
6 | CC1=C2C[C@H]3[C@@H](CC=C4C[C@@H](O)CC[C@@]43C)[C@@H]2CC[C@]12O[C@@H]1C[C@H](C)CN[C@H]1[C@H]2C |  |  | -1.14 | -2.19 | 1.76 | 13.7 |  |  | -4.8 |  | -6.3 |  |  | -3.27
7 | COC(=O)[C@H]1[C@H]2C[C@H]3c4[nH]c5ccccc5c4CCN3C[C@H]2CC[C@@H]1O | 94.3 | 2.54 | 98.3 | 8.74 | 19 | 58.4 | 85.3 | 40.2 | 32.4 |  |  | 43.4 | -2.94 | 6.36
8 | CO[C@@H]1COCC[C@@H]1N[C@@H]1CC[C@@](C(=O)N2CCc3ncc(C(F)(F)F)cc3C2)(C(C)C)C1 | -6.19 |  |  | 2.39 | 25.9 | 2.58 | 3.16 | -3.53 |  |  | 6.08 |  |  | 28.2
9 | CS(=O)(=O)NC[C@H]1CC[C@H](Nc2nc3c(s2)CCSc2ccccc2-3)CC1 | 83 | 0.89 | 0.86 | -4.86 | -0.03 | -8.21 | 35 | 44 | 14.1 | 50.8 | -7.8 | 7.48 | 0.88 | 
10 | C[C@]1(C(=O)N(CCCC(=O)O)Cc2cccc(Cl)c2)CCN1C(=O)c1csc2ccccc12 | -7.25 |  | 10.9 | 12.9 | -5.78 | -9.59 | 3.68 | 4.3 | -1.97 |  |  |  | -7.18 | 1.62
11 | FC(F)(F)c1c(N2CCC(c3ccccc3)CC2)ccn2c(CC3CC3)nnc12 | -9.2 |  |  | -1.74 | 10.5 |  | -9.81 |  |  |  | -8.34 | 31.6 |  | 22.1
12 | Cc1cn2cc(CC(=O)N3CCC4(CC3)CN(Cc3ccc(-n5nccn5)cc3Cl)C4)nc2s1 | 19.4 | -3.75 | 9.33 | -5.48 | 35.7 | 33.4 | 17.5 | 50.6 | -5.26 | 4.85 | 98.2 | 44.3 | 1.22 | 
13 | COc1cc2nc(N3CCN(C(=O)c4ccco4)CC3)nc(N)c2cc1OC | 54.3 | 3.9 | 42.3 | 1.83 | 11 | 0 | 19.4 | 27.4 | 22.2 |  |  | 26.5 | 2.09 | 2.66
14 | O=C(O)C1CN(Cc2ccc(OCc3ccc(Cl)c(Cl)c3)cc2)C1 | 10.2 |  | 29.7 | -3.72 | -7.92 |  | 5.45 | -0.79 |  |  | -5.25 |  | -8.5 | -7.03
15 | Clc1ccc(CCCOCCCN2CCCCC2)cc1 | 37 | 57 | -7.75 | -7.57 | 40.4 | 5.07 | 39.1 | 21.5 | 12.1 | 16.4 | 44.5 | 64.5 | 28.6 | 

Reference: ChEMBL document CHEMBL5442219
